Measured values reported in patent US5112833A, “1-azaindolizine derivatives, synthetic intermediates thereof and antiallergic agents containing 1-azaindolizine derivatives” (Zenyaku Kogyo Kabushiki Kaisha, priority 1988, dated 1992).
Counter-ions that a name gives are not always drawn.

Experiments:
[1] = test system: homologous passive cutaneous anaphylaxis (PCA) reaction; assay: Inhibition of homologous passive cutaneous anaphylaxis (PCA) reaction; assay type: in vivo, male Wistar rats; details: Rattus norvegicus, 0.5 h, rats, read-out: Inhibition (%) of leaked amount of dye in PCA reaction; for inhibition in vivo at 20 mg/kg: intravenous, immediately before ovalbumin challenge, *P < 0.02, **P < 0.005
Procedure: The antiallergic action of the compounds of the present invention obtained by the above-mentioned preparation process was examining by the following inhibition test of homologous passive cutaneous anaphylaxis (PCA) reaction on rats.
Antiserum was obtained from rats that were immunized with ovalbumin according to the method of Mota [Immunology, 7, 681-699 (1964)]. The antiserum was diluted with physiological saline to make PCA reaction of approximately 10-15 mm in diameter. Groups of 5 male Wistar rats, 8 weeks old and weighing between 200-250 g, were passively sensitized with 0.1 ml of the diluted antiserum injected intradermally in the shaved area on the back. Fourty-eight hours after the sensitization, each above sample dissolved into physiological saline was injected into the rats intravenously via tail vein. Immediately after injection of the sample, rats were challenged with the physiological saline solution containing ovalbumin (25 mg/kg/head) and Evans blue (12.5 mg/kg/head) intravenously via tail vein so as to generate PCA reaction. Thirty minutes after the accomplishment of the challenge, the rats were exsanguinated and removed the skins from the back. The amount of the dye leaked out of the vessels was measured by the method of Katayama et al. [Microbiol. Immunol. 22, 89-101 (1978)].
The effects of samples on PCA reaction were expressed as percentage of inhibition of the leaked amount of the dye calculated by the following equation: [formula] where C is the mean leaked amount of the dye in control group, S is the mean leaked amount of dye in sample treated group. The results of the experiments were shown in Table 1, which included the effect of DSCG used as a positive control.

[2] = Acute toxicity test (LD50); details: mouse, in vivo; intravenous via tail vein, male ICR mice, 10 days' observation
Procedure: Acute toxicity tests of the compounds of the present invention were carried out as described below. Groups of 5 male ICR mice, 5 weeks old and weighing 30±5 g, were used. The samples dissolved in physiological saline were injected intravenously via tail vein of the mice. Each LD50 was determined through 10 days' observation.

Compound	inhibition in vivo at 10 mg/kg ([1]; iv, 10 mg/kg, positive control, **P < 0.005) [%]	inhibition in vivo at 20 mg/kg [1] [%]	LD50 at 240 h [2] [mg/kg]
O=C(O)c1cc(=O)c2c(OCC(O)COc3cccc4oc(C(=O)O)cc(=O)c34)cccc2o1 [DSCG, disodium chromoglycate, reference compound]	75		
Cc1cccn2c(C=C(C#N)C(=O)O)c(OCC3CC3)nc12 [Sample 15, Sodium salt of 3-(2-carboxy-2-cyanovinyl)-2-cyclopropylmethoxy-8-methylimidazo[1,2-a]pyridine]		61.8	
CCC(C)Oc1nc2c(C)cccn2c1C=C(C#N)C(=O)O (stereo not drawn) [Sample 8, Sodium salt of 3-(2-carboxy-2-cyanovinyl)-8-methyl-2-secbutoxyimidazo[1,2-a]pyridine]		80.4	
CCOc1cccn2c(C=C(C#N)C(=O)O)c(OC(C)C)nc12 [Sample 4, Sodium salt of 3-(2-carboxy-2-cyanovinyl)-8-ethoxy-2-isopropoxyimidazo[1,2-a]pyridine]		85.4	
C=CCCOc1nc2c(C)cccn2c1C=C(C#N)C(=O)O [Sample 12, Sodium salt of 2-(3-butenyloxy)-3-(2-carboxy-2-cyanovinyl)-8-methylimidazo[1,2-a]pyridine]		68.9	
Cc1cccn2c(C=C(C#N)C(=O)O)c(OC(C)C)nc12 [Sample 2, Sodium salt of 3-(2-carboxy-2-cyanovinyl)-2-isopropoxy-8-methylimidazo[1,2-a]pyridine]		68.4	~150
CCCCCCOc1nc2c(C)cccn2c1C=C(C#N)C(=O)O [Sample 11, Sodium salt of 3-(2-carboxy-2-cyanovinyl)-2-hexyloxy-8-methylimidazo[1,2-a]pyridine]		75.7	
COc1cccn2c(C=C(C#N)C(=O)O)c(OC(C)C)nc12 [Sample 3, Sodium salt of 3-(2-carboxy-2-cyanovinyl)-2-isopropoxy-8-methoxyimidazo[1,2-a]pyridine]		90	~350
COc1nc2ccc(C)cn2c1C=C(C#N)C(=O)O [Sample 1, Sodium salt of 3-(2-carboxy-2-cyanovinyl)-2-methoxy-6-methylimidazo[1,2-a]pyridine]		52.6	
Cc1cccn2c(C=C(C#N)C(=O)O)c(OCCCO)nc12 [Sample 13, Sodium salt of 3-(2-carboxy-2-cyanovinyl)-2-(3-hydroxypropoxy)-8-methylimidazo[1,2-a]pyridine]		64.3	
CCOc1cccn2c(C=C(C#N)C(=O)O)c(OC(C)CC)nc12 (stereo not drawn) [Sample 9, Sodium salt of 3-(2-carboxy-2-cyanovinyl)-8-ethoxy-2-secbutoxyimidazo[1,2-a]pyridine]		75.3	
CC(=O)NCCCOc1nc2c(C)cccn2c1C=C(C#N)C(=O)O [Sample 14, Sodium salt of 2-(3-acetylaminoproxy)-3-(2-carboxy-2-cyanovinyl)-8-methylimidazo[1,2-a]pyridine]		74.8	
CC(C)Oc1nc2c(OC(C)C)cccn2c1C=C(C#N)C(=O)O [Sample 5, Sodium salt of 3-(2-carboxy-2-cyanovinyl)-2,8-diisopropoxyimidazo[1,2-a]pyridine]		94.6	~220
CCCCOc1nc2c(C)cccn2c1C=C(C#N)C(=O)O [Sample 6, Sodium salt of 2-butoxy-3-(2-carboxy-2-cyanovinyl)-8-methylimidazo[1,2-a]pyridine]		69.8	
COCCOc1nc2c(C)cccn2c1C=C(C#N)C(=O)O [Sample 16, Sodium salt of 3-(2-carboxy-2-cyanovinyl)-2-(2-methoxyethoxy)-8-methylimidazo[1,2-a]pyridine]		68.9	
Cc1cccn2c(C=C(C#N)C(=O)O)c(OCCCC#N)nc12 [Sample 17, Sodium salt of 3-(2-carboxy-2-cyanovinyl)-2-(3-cyanoproxy)-8-methylimidazo[1,2-a]pyridine]		71.3	
Cc1ccn2c(C=C(C#N)C(=O)O)c(OCC(C)C)nc2c1 [Sample 7, Sodium salt of 3-(2-carboxy-2-cyanovinyl)-2-isobutoxy-7-methylimidazo[1,2-a]pyridine]		65.8	
CCC(C)Oc1nc2c(OC(C)C)cccn2c1C=C(C#N)C(=O)O (stereo not drawn) [Sample 10, Sodium salt of 3-(2-carboxy-2-cyanovinyl)-8-isopropoxy-2-secbutoxyimidazo[1,2-a]pyridine]		92.5	
